Values quoted from earlier work in patent US20140356423A1, “FORMULATIONS OF LYCOPENE IN COMBINATION WITH BISPHOSPHONATES BONE RESORPTION INHIBITORS” (priority 2013, published 2014).
Like-named read-outs stand apart in the source and are kept apart here.

How the values were obtained:
[1] = tested on: alkaline phosphatase activity
[2] = tested on: osteoblast-like SaOS-2 cells
[3] = tablet not taken with enough water, or patient not upright for approximately one-half hour after taking
[4] = taken either concurrently with or 2 hours after breakfast

| alkaline phosphatase activity ([1]; more mature cells grown in the presence of dexamethasone (SaOS+Dex cells)) | alkaline phosphatase activity ([1]; younger cells grown in the absence of dexamethasone (SaOS-Dex cells), depending on the time of addition) | impairment of availability [4] [%] | SMILES | proliferation of osteoblast-like SaOS-2 cells [2] | side effects [3] |
| --- | --- | --- | --- | --- | --- |
| stimulate alkaline phosphatase activity | inhibited or had no effect | – | CC(C)=CCC/C(C)=C/C=C/C(C)=C/C=C/C(C)=C/C=C/C=C(C)/C=C/C=C(C)/C=C/C=C(\C)CCC=C(C)C [lycopene] | stimulated the proliferation | – |
| – | – | > 85 | NCCCC(O)(P(=O)(O)O)P(=O)(O)O [alendronate, 4-amino-1-hydroxybutylidene-1,1-biphosphonic acid] | – | esophageal irritation and erosion |
